Test results reported in patent US20240009277A1, “POLYPEPTIDES FOR USE IN THE TREATMENT AND PREVENTION OF NEURODEGENERATIVE DISEASES” (IMMUNE SYSTEM KEY LTD., priority 2020, published 2024).
Non-standard residues stand in square brackets, D forms with d. Residues, ends and D or L forms follow the SMILES beside them. No end group written: not given here.

Assay: Blood Brain Barrier (BBB) penetration assay, ELISA of spinal fluid after I.P. injection
Assay type: in vivo, mice
Settings: for level of the polypeptide in mice brain following injection: I.P. 60 mg/kg in 5% mannitol, spinal fluid collected after 1 hour, ELISA, compared to 5% mannitol control
Protocol: ICR female mice having initial body weight of 20-22 grams were used (Envigo).
A control group of 6 mice was injected intraperitoneally (I.P.) with 5% mannitol solution and another group of 6 mice was injected I.P. with the polypeptide dTCApFs (also termed herein Nerofe, at 60 mg/kg) in a 5% mannitol solution. Spinal fluid was collected after the injection (1 hour) and subjected to ELISA analysis of dTCApFs (Nerofe), as detailed below.
Mice were injected with 60 mg/kg D-amino acid dTCApFs (Nerofe), and cerebrospinal fluid (about 10 μl) and serum were collected after 1 hr, and frozen. A calibration curve was prepared by serial dilutions of the polypeptide in PBS (Biological industries, 02-023-5A) as noted in table 1 below.
Next, the cerebrospinal samples were thawed and kept on ice, and then diluted in 220 μl PBS. Sample loading was next performed by loading 100 μl duplicates of each sample and of the standard in a Maxisorp 96-wells plate (NUNC, F96 Maxisorp, 442404). The plate was sealed and incubated at 4° C. overnight with gentle shaking. The plate was washed by removing the liquid and washing the plate four (4) times using a multi-pipette or an automated washer with 300 μl 0.05% TW-20 (Amresco, 0777-1L) in PBS. The samples were blocked by diluting 5% BSA (MP biomedicals, 160069) in PBS. Then, 300 μl of the blocking buffer were loaded in each well and the plate was incubated at room temperature (R.T.) for 1 hour with gentle shaking. The Plates were washed again, as described above.
Detection was performed by diluting the first antibody according to table 1 below in diluent (0.05% TW-20, 0.1% BSA in PBS). Then, 100 μl of detection antibody were loaded into each well and the plate was incubated at R.T. for 2:00 hours with gentle shaking. The plate was washed again as detailed above. […]
Development was performed by adding 100 μl TMB (Milipore, ES001-500ML) to each well, and waiting for blue color development, then adding 100 μl 2N H2SO4 (Frutarom, 5552540). Plate reading was performed in a microplate reader, by checking the wells absorbance at 450 nm. […]

| Compound | level of the polypeptide in mice brain following injection | penetration ability of the BBB (mice, I.P. 60 mg/kg) |
| --- | --- | --- |
| WWTFFLPSTLWERK [L-amino acid polypeptide, Trp Trp Thr Phe Phe Leu Pro Ser Thr Leu Trp Glu Arg Lys, reference compound] | changed insignificantly |  |
| CC(C)C[C@@H](NC(=O)[C@H](NC(=O)[C@@H](CO)NC(=O)[C@H]1CCCN1C(=O)[C@@H](CC(C)C)NC(=O)[C@@H](Cc1ccccc1)NC(=O)[C@@H](Cc1ccccc1)NC(=O)[C@H](NC(=O)[C@@H](Cc1c[nH]c2ccccc12)NC(=O)[C@H](N)Cc1c[nH]c2ccccc12)[C@H](C)O)[C@H](C)O)C(=O)N[C@H](Cc1c[nH]c2ccccc12)C(=O)N[C@H](CCC(=O)O)C(=O)N[C@H](CCCNC(=N)N)C(=O)N[C@H](CCCCN)C(=O)O [dTCApFs, Trp Trp Thr Phe Phe Leu Pro Ser Thr Leu Trp Glu Arg Lys] (H-[dW][dW][dT][dF][dF][dL][dP][dS][dT][dL][dW][dE][dR][dK]-OH; N-terminus and C-terminus assumed) | dramatically increased | good penetration ability of the BBB |
